molecular target: T1, N-terminally GST-tagged human full length recombinant Mps-1 kinase (Homo sapiens, UniProt P33981); test: Mps-1 kinase assay (TR-FRET); assay type: biochemical; conditions: Mps1 IC50 [nM], 10 μM ATP, 1 μM peptide substrate, 60 min at 22° C.
T1 construct: N-terminally GST-tagged human full length recombinant Mps-1 kinase; purchased Invitrogen, Karslruhe, Germany PV4071
T1 sequence (P33981 1-857): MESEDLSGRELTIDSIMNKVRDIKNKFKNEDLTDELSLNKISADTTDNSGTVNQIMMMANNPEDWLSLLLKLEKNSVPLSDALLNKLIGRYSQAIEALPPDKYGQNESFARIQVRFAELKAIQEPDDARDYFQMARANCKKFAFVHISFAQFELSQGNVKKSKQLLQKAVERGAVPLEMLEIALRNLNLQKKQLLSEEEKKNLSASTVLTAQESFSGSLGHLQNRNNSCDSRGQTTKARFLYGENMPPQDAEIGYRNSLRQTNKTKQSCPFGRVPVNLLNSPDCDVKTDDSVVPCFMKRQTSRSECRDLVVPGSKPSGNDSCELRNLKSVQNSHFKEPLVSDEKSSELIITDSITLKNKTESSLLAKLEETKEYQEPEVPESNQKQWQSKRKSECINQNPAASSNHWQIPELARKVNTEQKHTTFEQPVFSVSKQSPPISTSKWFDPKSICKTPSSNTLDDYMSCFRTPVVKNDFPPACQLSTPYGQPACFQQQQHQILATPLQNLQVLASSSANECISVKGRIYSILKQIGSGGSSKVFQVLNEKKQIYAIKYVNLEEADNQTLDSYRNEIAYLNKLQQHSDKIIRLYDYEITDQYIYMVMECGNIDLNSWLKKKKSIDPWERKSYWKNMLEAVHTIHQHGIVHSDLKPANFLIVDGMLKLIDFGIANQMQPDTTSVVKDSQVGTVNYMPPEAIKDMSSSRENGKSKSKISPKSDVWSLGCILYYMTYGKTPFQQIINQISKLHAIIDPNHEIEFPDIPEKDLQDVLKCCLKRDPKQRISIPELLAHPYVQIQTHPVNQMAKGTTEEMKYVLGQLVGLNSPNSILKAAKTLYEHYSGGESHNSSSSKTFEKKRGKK
Outline: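 Read-out: TR-FRET from Europium-labelled anti-phospho(Ser/Thr) antibody to SA-XLent after 1 h detection incubation at 22° C. Inhibition of kinase activity measured.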

| Compound | IC50 [nM] |
| --- | --- |
| Cc1cc(-c2cnc3c(NCC(C)(C)O)cc(Nc4ccc(F)nc4)nn23)ccc1C(=O)NC1CC1 [Example 406, N-cyclopropyl-4-{6-[(6-fluoropyridin-3-yl)amino]-8-[(2-hydroxy-2-methylpropyl)amino]imidazo[1,2-b]pyridazin-3-yl}-2-methylbenzamide] | 0.4 |
| C=Cc1cccc(Nc2cc(NCC(C)(C)O)c3ncc(-c4ccc(C(=O)NC5CC5)c(C)c4)n3n2)c1 [Example 409, N-cyclopropyl-4-{6-[(3-ethenylphenyl)amino]-8-[(2-hydroxy-2-methylpropyl)amino]imidazo[1,2-b]pyridazin-3-yl}-2-methylbenzamide] | 0.7 |
| Cc1cc(-c2cnc3c(NCC(C)(C)O)cc(Oc4ccc(F)nc4)nn23)ccc1C(=O)NC1CC1 [Example 410, N-cyclopropyl-4-{6-[(6-fluoropyridin-3-yl)oxy]-8-[(2-hydroxy-2-methylpropyl)amino]imidazo[1,2-b]pyridazin-3-yl}-2-methylbenzamide] | 0.5 |
| Cc1cc(-c2cnc3c(NCC(C)(C)O)cc(Oc4cncc(C(N)=O)c4)nn23)ccc1C(=O)NC1CC1 [Example 411, 5-({3-[4-(cyclopropylcarbamoyl)-3-methylphenyl]-8-[(2-hydroxy-2-methylpropyl)amino]imidazo[1,2-b]pyridazin-6-yl}oxy)nicotinamide] | 4.8 |
| Cc1cc(-c2cnc3c(NCC(C)(C)O)cc(Sc4cnccn4)nn23)ccc1C(=O)NC1CC1 [Example 412, N-cyclopropyl-4-{8-[(2-hydroxy-2-methylpropyl)amino]-6-(pyrazin-2-ylsulfanyl)imidazo[1,2-b]pyridazin-3-yl}-2-methylbenzamide] | 19.2 |
| Cc1cc(-c2cnc3c(NCC(C)(C)O)cc(Sc4nncn4C)nn23)ccc1C(=O)NC1CC1 [Example 413, N-cyclopropyl-4-{8-[(2-hydroxy-2-methylpropyl)amino]-6-[(4-methyl-4H-1,2,4-triazol-3-yl)sulfanyl]imidazo[1,2-b]pyridazin-3-yl}-2-methylbenzamide] | 45.7 |
| Cc1cc(-c2cnc3c(NCC(C)(C)O)cc(Oc4ccn[nH]4)nn23)ccc1C(=O)NC1CC1 [Example 414, N-cyclopropyl-4-{8-[(2-hydroxy-2-methylpropyl)amino]-6-(1H-pyrazol-5-yloxy)imidazo[1,2-b]pyridazin-3-yl}-2-methylbenzamide] | 6.7 |
| Cc1cc(Oc2cc(NCC(C)(C)O)c3ncc(-c4ccc(C(=O)NC5CC5)c(C)c4)n3n2)n[nH]1 [Example 415, N-cyclopropyl-4-{8-[(2-hydroxy-2-methylpropyl)amino]-6-[(5-methyl-1H-pyrazol-3-yl)oxy]imidazo[1,2-b]pyridazin-3-yl}-2-methylbenzamide] | 8.2 |
| COc1c(Oc2cc(NCCC(F)(F)F)c3ncc(-c4ccc(C(=O)NC5CC5)c(C)c4)n3n2)cccc1C(C)C [Example 418, N-cyclopropyl-4-{6-[2-methoxy-3-(propan-2-yl)phenoxy]-8-[(3,3,3-trifluoropropyl)amino]imidazo[1,2-b]pyridazin-3-yl}-2-methylbenzamide] | 1.2 |
| Cc1cc(-c2cnc3c(NCCC(F)(F)F)cc(Sc4nncn4C)nn23)ccc1C(=O)NC1CC1 [Example 419, N-cyclopropyl-2-methyl-4-{6-[(4-methyl-4H-1,2,4-triazol-3-yl)sulfanyl]-8-[(3,3,3-trifluoropropyl)amino]imidazo[1,2-b]pyridazin-3-yl}benzamide] | 3.5 |
| Cc1cc(-c2cnc3c(NCCC(F)(F)F)cc(Sc4cnccn4)nn23)ccc1C(=O)NC1CC1 [Example 420, N-cyclopropyl-2-methyl-4-{6-(pyrazin-2-ylsulfanyl)-8-[(3,3,3-trifluoropropyl)amino]imidazo[1,2-b]pyridazin-3-yl}benzamide] | 2.8 |
| COc1cc(Nc2cc(NCCC(F)(F)F)c3ncc(-c4ccc(C(=O)NC5CC5)c(C)c4)n3n2)ccc1F [Example 422, N-cyclopropyl-4-{6-[(4-fluoro-3-methoxyphenyl)amino]-8-[(3,3,3-trifluoropropyl)amino]imidazo[1,2-b]pyridazin-3-yl}-2-methylbenzamide] | 0.4 |
| Cc1cccc(Nc2cc(NCCC(F)(F)F)c3ncc(-c4ccc(C(=O)NC5CC5)c(C)c4)n3n2)c1 [Example 423, N-cyclopropyl-2-methyl-4-{6-[(3-methylphenyl)amino]-8-[(3,3,3-trifluoropropyl)amino]imidazo[1,2-b]pyridazin-3-yl}benzamide] | 0.3 |
| Cc1cc(Nc2cc(NCCC(F)(F)F)c3ncc(-c4ccc(C(=O)NC5CC5)c(C)c4)n3n2)ccc1F [Example 428, N-cyclopropyl-4-{6-[(4-fluoro-3-methylphenyl)amino]-8-[(3,3,3-trifluoropropyl)amino]imidazo[1,2-b]pyridazin-3-yl}-2-methylbenzamide] | 0.4 |
| COc1ccc(C)c(Nc2cc(NCCC(F)(F)F)c3ncc(-c4ccc(C(=O)NC5CC5)c(C)c4)n3n2)c1 [Example 430, N-cyclopropyl-4-{6-[(5-methoxy-2-methylphenyl)amino]-8-[(3,3,3-trifluoropropyl)amino]imidazo[1,2-b]pyridazin-3-yl}-2-methylbenzamide] | 0.3 |
| COc1cc(F)ccc1Nc1cc(NCC(C)(C)O)c2ncc(-c3ccc(C(=O)NC4CC4)c(C)c3)n2n1 [Example 432, N-cyclopropyl-4-{6-[(4-fluoro-2-methoxyphenyl)amino]-8-[(2-hydroxy-2-methylpropyl)amino]imidazo[1,2-b]pyridazin-3-yl}-2-methylbenzamide] | 4.6 |
| Cc1cc(-c2cnc3c(NCCC(F)(F)F)cc(Nc4cccc(C(C)C)c4)nn23)ccc1C(=O)NC1CC1 [Example 433, N-cyclopropyl-2-methyl-4-(6-{[3-(propan-2-yl)phenyl]amino}-8-[(3,3,3-trifluoropropyl)amino]imidazo[1,2-b]pyridazin-3-yl)benzamide] | 0.6 |

The next molecules have a lower IC50 than those just listed; values first:

| IC50 [nM] | Compound |
| --- | --- |
| 0.2 | Cc1cc(-c2cnc3c(NCC(C)(C)O)cc(Nc4ccc(F)cc4Cl)nn23)ccc1C(=O)NC1CC1 [Example 405, 4-{6-[(2-chloro-4-fluorophenyl)amino]-8-[(2-hydroxy-2-methylpropyl)amino]imidazo[1,2-b]pyridazin-3-yl}-N-cyclopropyl-2-methylbenzamide] |
| 0.2 | Cc1cc(-c2cnc3c(NCCC(F)(F)F)cc(Sc4ccc(F)cc4N)nn23)ccc1C(=O)NC1CC1 [Example 417, 4-{6-[(2-amino-4-fluorophenyl)sulfanyl]-8-[(3,3,3-trifluoropropyl)amino]imidazo[1,2-b]pyridazin-3-yl}-N-cyclopropyl-2-methylbenzamide] |
| 0.2 | COc1ccc(Nc2cc(NCCC(F)(F)F)c3ncc(-c4ccc(C(=O)NC5CC5)c(C)c4)n3n2)cc1F [Example 424, N-cyclopropyl-4-{6-[(3-fluoro-4-methoxyphenyl)amino]-8-[(3,3,3-trifluoropropyl)amino]imidazo[1,2-b]pyridazin-3-yl}-2-methylbenzamide] |
| 0.1 | COc1ccc(Nc2cc(NCCC(F)(F)F)c3ncc(-c4ccc(C(=O)NC5CC5)c(C)c4)n3n2)cc1 [Example 425, N-cyclopropyl-4-{6-[(4-methoxyphenyl)amino]-8-[(3,3,3-trifluoropropyl)amino]imidazo[1,2-b]pyridazin-3-yl}-2-methylbenzamide] |
| 0.2 | COc1cccc(Nc2cc(NCCC(F)(F)F)c3ncc(-c4ccc(C(=O)NC5CC5)c(C)c4)n3n2)c1C [Example 426, N-cyclopropyl-4-{6-[(3-methoxy-2-methylphenyl)amino]-8-[(3,3,3-trifluoropropyl)amino]imidazo[1,2-b]pyridazin-3-yl}-2-methylbenzamide] |
| 0.2 | Cc1cc(-c2cnc3c(NCCC(F)(F)F)cc(Nc4ccc(CCO)cc4)nn23)ccc1C(=O)NC1CC1 [Example 427, N-cyclopropyl-4-(6-{[4-(2-hydroxyethyl)phenyl]amino}-8-[(3,3,3-trifluoropropyl)amino]imidazo[1,2-b]pyridazin-3-yl)-2-methylbenzamide] |
| 0.1 | COc1ccc(Nc2cc(NCCC(F)(F)F)c3ncc(-c4ccc(C(=O)NC5CC5)c(C)c4)n3n2)cn1 [Example 429, N-cyclopropyl-4-{6-[(6-methoxypyridin-3-yl)amino]-8-[(3,3,3-trifluoropropyl)amino]imidazo[1,2-b]pyridazin-3-yl}-2-methylbenzamide] |
| 0.1 | Cc1cc(-c2cnc3c(NCC(C)(C)O)cc(Nc4ccccc4O)nn23)ccc1C(=O)NC1CC1 [Example 431, N-cyclopropyl-4-{8-[(2-hydroxy-2-methylpropyl)amino]-6-[(2-hydroxyphenyl)amino]imidazo[1,2-b]pyridazin-3-yl}-2-methylbenzamide] |

Reference: patent US9255100B2 (BAYER INTELLECTUAL PROPERTY GMBH, priority 2010, dated 2016)
